# Data as given in US20230212143A9, “PRMT5 INHIBITOR COMPOUNDS” (University of Florida Research Foundation, Incorporated, priority 2019, published 2023).
# How the values were obtained:
# PRMT5 [1] = target: T1, PRMT5 (Homo sapiens, UniProt O14744); test: AlphaLISA enzymatic inhibition assay; assay type: biochemical; parameters: made in house; host or cells: Sf9 insect cells (Bac-to-Bac baculovirus system)
# Text: (§1) Protein expression and purification. […] Enzymatic inhibition assay. […] Cancer cell lines. […] Cell proliferation assay. […] Western blot.
# PRMT5:MEP50 = target: T2, PRMT5:MEP50 (Homo sapiens, UniProt O14744); test: MTase-Glo enzymatic inhibition assay; assay type: biochemical; settings: 100 nM PRMT5:MEP50, 10 μM SAM, 2 μM histone H4 (1-21)
# T2 construct: made in house; host or cells: Sf9 insect cells (Bac-to-Bac baculovirus system)
# T2 sequence (O14744 whole entry): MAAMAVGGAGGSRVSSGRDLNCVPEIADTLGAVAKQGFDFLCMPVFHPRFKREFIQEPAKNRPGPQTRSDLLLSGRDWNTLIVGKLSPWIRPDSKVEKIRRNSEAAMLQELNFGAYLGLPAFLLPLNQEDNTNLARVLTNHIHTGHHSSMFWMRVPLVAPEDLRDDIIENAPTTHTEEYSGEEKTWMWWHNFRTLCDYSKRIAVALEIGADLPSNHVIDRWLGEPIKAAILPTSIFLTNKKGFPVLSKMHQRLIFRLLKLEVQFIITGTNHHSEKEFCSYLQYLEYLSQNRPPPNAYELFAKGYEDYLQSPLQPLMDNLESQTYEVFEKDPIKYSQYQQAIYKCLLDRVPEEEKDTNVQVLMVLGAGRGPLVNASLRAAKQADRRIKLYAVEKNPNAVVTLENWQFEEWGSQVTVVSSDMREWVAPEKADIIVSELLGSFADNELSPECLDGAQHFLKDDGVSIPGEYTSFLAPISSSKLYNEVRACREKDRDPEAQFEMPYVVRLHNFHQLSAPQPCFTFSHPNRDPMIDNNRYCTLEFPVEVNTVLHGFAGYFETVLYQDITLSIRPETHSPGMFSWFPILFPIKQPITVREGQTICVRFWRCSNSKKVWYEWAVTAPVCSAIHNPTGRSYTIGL
# T2 sequence (Q9BQA1 whole entry partner): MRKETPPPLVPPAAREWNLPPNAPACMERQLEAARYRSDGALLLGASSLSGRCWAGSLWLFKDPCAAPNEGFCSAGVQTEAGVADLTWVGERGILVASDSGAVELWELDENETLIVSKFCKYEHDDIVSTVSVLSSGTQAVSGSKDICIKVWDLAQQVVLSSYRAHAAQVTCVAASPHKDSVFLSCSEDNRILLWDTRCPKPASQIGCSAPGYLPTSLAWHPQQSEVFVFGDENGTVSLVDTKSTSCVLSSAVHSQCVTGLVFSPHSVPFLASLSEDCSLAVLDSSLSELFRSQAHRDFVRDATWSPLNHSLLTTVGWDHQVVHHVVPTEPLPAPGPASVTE
# Text: as §1
# PRMT5 [2] = target: T1, PRMT5; test: Cellular Thermal Shift Assay; assay type: cell-based; parameters: endogenous in cells; host or cells: MDA-MB-231; settings: MDA-MB-231 triple negative breast cancer cells
# T1 sequence (O14744 whole entry): as the sequence (O14744 whole entry) above
# T1 sequence (Q9BQA1 whole entry partner): as the sequence (Q9BQA1 whole entry partner) above
IC50 (PRMT5:MEP50; 11-series),IC50 (PRMT5:MEP50; 15-series),Structure (SMILES),other results
–,–,CCn1c2ccccc2c2cc(CNCc3ccccn3)ccc21 [CMP5],enzymatic inhibition activity (PRMT5 [1]): weak
1340 nM,–,CCn1c2c(c3cc(C(=O)NCc4ccc5ccc(N)nc5c4)ccc31)CCCC2 [Compound 11-1F],–
883 nM,–,Nc1ccc2ccc(CNC(=O)c3ccc4c(c3)c3c(n4CCO)CCCC3)cc2n1 [Compound 11-2F],–
–,–,CCn1c2c(c3cc(C(=O)NCc4ccc5c(N)nc(N)nc5c4)ccc31)CCCC2 [Compound 11-9F],PRMT5 melting temperature increase (PRMT5 [2]): 1.5 degree Celsius
–,218 nM,CC(=O)N1CCC(Nc2cc(C(=O)NCc3ccc4ccc(N)nc4c3)ncn2)CC1 [Compound 15-1F],–
–,152 nM,CC(=O)N1CCC(Nc2cc(C(=O)NCc3ccc4c(N)nc(N)nc4c3)ncn2)CC1 [Compound 15-2F],–
